# Test results published in patent publication US20240315963A1, “COMPOSITIONS AND METHODS FOR EXTENDED DELIVERY OF API TO TREAT DISEASES OF THE EYE” (priority 2023, published 2024).
# Assay: API elution study from the gel, buffer replaced daily, HPLC
# Assay type: physicochemical
# Conditions: 50 mg API in 4-Arm PEG-10K-SG/4-arm-PEG-10K-SAS/4-arm PEG-20K-NH2 gel; 37° C., 2 ml 7.4 buffer replaced daily
# Experimental: A mold piece manufactured per example 5 is placed in a 2 ml buffered saline at 37° C. water bath. The entire 2 ml saline is removed daily from the sample and a new 2 ml saline is added. The process is repeated daily till the device is completely dissolved. The saline sample with drug is analyzed by HPLC, GC to establish the elution rate.
# Example 22. Powder mixtures of 4-Arm PEG-10K-SG (12.5 mg) and 4-arm-PEG-10K-SAS (12.5±0.5 mg), 4-arm PEG-20K-NH 2 (25±0.5 mg) were placed in a 10 ml syringe. To this powder was added 50 mg corticosteroid TMC.
structure (smiles),measurement,value
C[C@]12C=CC(=O)C=C1CC[C@H]1[C@@H]3C[C@@H](O)[C@](O)(C(=O)CO)[C@@]3(C)C[C@H](O)[C@@]12F [TMC],amount eluted each day,about 54 micro grams
